Measurements from ChEMBL document CHEMBL1201862, “PubChem BioAssay data set” (2004).
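Five compound concentrations were applied to cells in 96-well plates for 48 hours; endpoints were derived by simple linear interpolation of the resulting dose-response curve. GI50 marks 50% less growth.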 Active and inactive are the calls of the source. No stated cut-off is given here; in the data, active = GI50 up to about 1.1 µM and inactive = higher.

Experiments:
Test in all cases: growth of human tumour cells (NCI), 48 h
786-0 = tested on: 786-0
T47D = tested on: T47D
SK-OV-3 = tested on: SK-OV-3
HL-60 = tested on: HL-60
SR = tested on: SR
UACC-257 = tested on: UACC-257
COLO 205 = tested on: COLO 205
HT-29 = tested on: HT-29
TK-10 = tested on: TK-10
A498 = tested on: A498
NCI-H460 = tested on: NCI-H460
SF-268 = tested on: SF-268
UO-31 = tested on: UO-31
Hs-578T = tested on: Hs-578T
A549 = tested on: A549
MDA-MB-435 = tested on: MDA-MB-435
SK-MEL-5 = tested on: SK-MEL-5
SK-MEL-28 = tested on: SK-MEL-28
SF-295 = tested on: SF-295
SNB-78 = tested on: SNB-78

| Structure (SMILES) | GI50 (786-0) | GI50 (T47D) | GI50 (SK-OV-3) | GI50 (HL-60) | GI50 (SR) | GI50 (UACC-257) | GI50 (COLO 205) | GI50 (HT-29) | GI50 (TK-10) | GI50 (A498) | GI50 (NCI-H460) | GI50 (SF-268) | GI50 (UO-31) | GI50 (Hs-578T) | GI50 (A549) | GI50 (MDA-MB-435) | GI50 (SK-MEL-5) | GI50 (SK-MEL-28) | GI50 (SF-295) | GI50 (SNB-78) |
| --- | --- | --- | --- | --- | --- | --- | --- | --- | --- | --- | --- | --- | --- | --- | --- | --- | --- | --- | --- | --- |
| O=C(O)c1cc(-c2ccc3cc(O)c(O)cc3c2)ccc1O | > 12.5 µM (inactive) | > 12.5 µM (inactive) | > 12.5 µM (inactive) | > 12.5 µM (inactive) | > 12.5 µM (inactive) | > 12.5 µM (inactive) | > 12.5 µM (inactive) | > 12.5 µM (inactive) | > 12.5 µM (inactive) | > 12.5 µM (inactive) | > 12.5 µM (inactive) | > 12.5 µM (inactive) | > 12.5 µM (inactive) | > 12.5 µM (inactive) | > 12.5 µM (inactive) | 5.73 µM (inactive) | > 12.5 µM (inactive) | > 12.5 µM (inactive) | > 12.5 µM (inactive) |  |
| Oc1ccc(C(c2ccc(O)cc2)c2ccc(O)cc2)cc1 | 17.6 µM (inactive) | 9.27 µM (inactive) | 14 µM (inactive) | 18.9 µM (inactive) | 37.1 µM (inactive) | 20.4 µM (inactive) | 7.16 µM (inactive) | 19 µM (inactive) | 22.8 µM (inactive) | 15.8 µM (inactive) | 18.8 µM (inactive) | 32.1 µM (inactive) | 18.4 µM (inactive) | 21.7 µM (inactive) | 35.9 µM (inactive) | 19.7 µM (inactive) | 13.8 µM (inactive) | 19.3 µM (inactive) | 41.4 µM (inactive) |  |
| Cc1ccc(NC(=O)C(=O)Cc2nc3ccccc3o2)c(C)c1 | > 100 µM (inactive) |  | > 100 µM (inactive) |  |  | > 100 µM (inactive) | > 100 µM (inactive) | > 100 µM (inactive) | > 100 µM (inactive) |  | > 100 µM (inactive) | > 100 µM (inactive) | > 100 µM (inactive) |  | > 100 µM (inactive) |  |  | > 100 µM (inactive) | > 100 µM (inactive) | > 100 µM (inactive) |
| O=c1/c(=C/c2c(O)ccc3ccccc23)sc2nc3ccccc3n12 | > 100 µM (inactive) |  | > 100 µM (inactive) | > 100 µM (inactive) |  | > 100 µM (inactive) | > 100 µM (inactive) | > 100 µM (inactive) | > 100 µM (inactive) | > 100 µM (inactive) | > 100 µM (inactive) | > 100 µM (inactive) | > 100 µM (inactive) |  | > 100 µM (inactive) |  | > 100 µM (inactive) | > 100 µM (inactive) | > 100 µM (inactive) | > 100 µM (inactive) |
| COc1ccc(/C=C/CN(C)CCc2ccccc2)cc1OC | > 100 µM (inactive) |  |  |  |  | 36.1 µM (inactive) | 52 µM (inactive) | 33.5 µM (inactive) | 46 µM (inactive) |  |  | > 100 µM (inactive) | 22.9 µM (inactive) |  | > 100 µM (inactive) |  | 59.2 µM (inactive) | > 100 µM (inactive) | 53.5 µM (inactive) | > 100 µM (inactive) |
| O=C(CCc1n[nH]c(=S)o1)Nc1cc(Cl)c(Cl)cc1Cl | 22.5 µM (inactive) |  | > 100 µM (inactive) | 33.3 µM (inactive) |  | > 100 µM (inactive) | 31.8 µM (inactive) | 25.8 µM (inactive) | 42.5 µM (inactive) | 36.9 µM (inactive) | 46.6 µM (inactive) | 26.5 µM (inactive) | 68.2 µM (inactive) |  | 67.8 µM (inactive) |  | 50.9 µM (inactive) | 60.1 µM (inactive) | > 100 µM (inactive) | > 100 µM (inactive) |
| CCCCCCCCCCCCP(=O)(O)OCC(N)C(=O)O (configuration not stated) | 27.5 µM (inactive) | > 100 µM (inactive) | 21.6 µM (inactive) | 15.8 µM (inactive) | 24.2 µM (inactive) | > 100 µM (inactive) | 45.8 µM (inactive) | 33.7 µM (inactive) | 33.3 µM (inactive) | 23.5 µM (inactive) | 23.7 µM (inactive) | 23.9 µM (inactive) | 12.3 µM (inactive) | 20.2 µM (inactive) | 24.8 µM (inactive) | 18.3 µM (inactive) | 32.5 µM (inactive) | 43.3 µM (inactive) | 17.4 µM (inactive) |  |
| Cc1cc(N(CCC#N)CCC#N)ccc1/C=N/NC(=O)c1ccccc1 | 31.6 µM (inactive) | 24.8 µM (inactive) | 18.5 µM (inactive) | 4.17 µM (inactive) | 1.34 µM (inactive) | > 48.9 µM (inactive) | 15.7 µM (inactive) | 3.79 µM (inactive) | 48.3 µM (inactive) | 10.1 µM (inactive) | 9.1 µM (inactive) | > 48.8 µM (inactive) | > 62.1 µM (inactive) | 15.4 µM (inactive) | 24.4 µM (inactive) | 2.42 µM (inactive) | 22 µM (inactive) | 31.5 µM (inactive) | 12.9 µM (inactive) |  |
| COc1ccc2[nH]c3c(c2c1)COc1ccccc1C3=O | > 100 µM (inactive) | 44.4 µM (inactive) | > 100 µM (inactive) | > 100 µM (inactive) | > 100 µM (inactive) | > 100 µM (inactive) | > 100 µM (inactive) | > 100 µM (inactive) | > 100 µM (inactive) | > 100 µM (inactive) | > 100 µM (inactive) | > 100 µM (inactive) | > 100 µM (inactive) | 69 µM (inactive) | > 100 µM (inactive) | 25.4 µM (inactive) | > 100 µM (inactive) | > 100 µM (inactive) | > 100 µM (inactive) |  |
| O=C1CCC2CCc3cccc4oc1c2c34 (configuration not stated) | > 100 µM (inactive) |  | > 100 µM (inactive) | > 100 µM (inactive) |  | > 100 µM (inactive) | > 100 µM (inactive) | > 100 µM (inactive) | > 100 µM (inactive) | > 100 µM (inactive) | > 100 µM (inactive) |  |  |  | > 100 µM (inactive) |  | > 100 µM (inactive) | > 100 µM (inactive) | 10.6 µM (inactive) | > 100 µM (inactive) |
| N#Cc1ccc(/C=N/NC(=O)CSCC(=O)N/N=C/c2ccc(C#N)cc2)cc1 | > 100 µM (inactive) | > 100 µM (inactive) | > 100 µM (inactive) | > 100 µM (inactive) | > 100 µM (inactive) | > 100 µM (inactive) | > 100 µM (inactive) | > 100 µM (inactive) | 56 µM (inactive) | > 100 µM (inactive) | > 100 µM (inactive) | > 100 µM (inactive) | > 100 µM (inactive) | > 100 µM (inactive) | > 100 µM (inactive) | > 100 µM (inactive) | > 100 µM (inactive) | > 100 µM (inactive) | > 100 µM (inactive) |  |
| CCOc1cc(/C=C/C=C/C=C/c2ccc(N(C)C)cc2)[s+]c2ccccc12 | 22.5 µM (inactive) |  | > 100 µM (inactive) | 1.72 µM (inactive) |  | 30.7 µM (inactive) | 41.1 µM (inactive) | 28.7 µM (inactive) | 40.4 µM (inactive) | > 100 µM (inactive) | 46.9 µM (inactive) | 13.5 µM (inactive) | 4.58 µM (inactive) |  | 21 µM (inactive) |  | 24 µM (inactive) | 19.1 µM (inactive) | 33.8 µM (inactive) | 22.5 µM (inactive) |
| Cc1ccc(NC(=O)CC(=O)N2N=C(N(C)c3ccccc3)CC2c2ccccc2)cc1 (configuration not stated) | > 100 µM (inactive) | > 100 µM (inactive) | > 100 µM (inactive) | > 100 µM (inactive) | > 100 µM (inactive) | > 100 µM (inactive) | > 100 µM (inactive) | > 100 µM (inactive) | > 100 µM (inactive) | > 100 µM (inactive) | > 100 µM (inactive) | > 100 µM (inactive) | > 100 µM (inactive) | > 100 µM (inactive) | > 100 µM (inactive) | > 100 µM (inactive) | > 100 µM (inactive) | > 100 µM (inactive) | > 100 µM (inactive) |  |
| O=C1/C(=C/Cc2ccco2)N=C(c2ccccc2)N1c1nc2ccc(Sc3ccccc3)cc2[nH]1 | 18 µM (inactive) | 32.1 µM (inactive) | 25.9 µM (inactive) | 21.7 µM (inactive) | 13.6 µM (inactive) | 17.7 µM (inactive) | 18.2 µM (inactive) | 25 µM (inactive) | 35.4 µM (inactive) | 8.36 µM (inactive) | 26.9 µM (inactive) | 18.9 µM (inactive) | 19.2 µM (inactive) | 18.9 µM (inactive) | 29.8 µM (inactive) | 5.52 µM (inactive) | 15.9 µM (inactive) | 28.2 µM (inactive) | 29.7 µM (inactive) |  |
| COc1cc2c(/C=C3/C(=O)Nc4ccc(Cl)cc43)c(Cl)[nH]c2cc1C | 0.731 µM (active) | 4.39 µM (inactive) | 0.284 µM (active) | 0.366 µM (active) | 0.32 µM (active) | 0.553 µM (active) | 0.352 µM (active) | 0.544 µM (active) | 1.05 µM (active) | 10.6 µM (inactive) | 0.524 µM (active) | 1.03 µM (active) | 1.34 µM (inactive) | 0.327 µM (active) | 0.711 µM (active) | 0.201 µM (active) | 0.592 µM (active) | 0.26 µM (active) | 0.356 µM (active) |  |
| Cc1c(O)nc(/C=C/C(=O)O)nc1C(=O)O | > 100 µM (inactive) | > 100 µM (inactive) | > 100 µM (inactive) | > 100 µM (inactive) | > 100 µM (inactive) | > 100 µM (inactive) | > 100 µM (inactive) | > 100 µM (inactive) | > 100 µM (inactive) | > 100 µM (inactive) | > 100 µM (inactive) | > 100 µM (inactive) | > 100 µM (inactive) | > 100 µM (inactive) | > 100 µM (inactive) | > 100 µM (inactive) | > 100 µM (inactive) | > 100 µM (inactive) | > 100 µM (inactive) |  |
